Results reported in patent US20240226072A1 (Stichting Het Nederlands Kanker Instituut, priority 2022, published 2024).
Where two headings read alike, the source gives them in different places.

Tests used:
[1] = Plasma pharmacokinetics and tissue distribution 2 h after oral cabazitaxel 10 mg/kg with vehicle or 25 mg/kg ritonavir in wild-type, Oatp1a/1b−/−, Oatp1a/1b/2b1−/−, OATP1B1- and OATP1B3-transgenic mice; type: in vivo; conditions: for Kp at 2 h / Cmax / Tmax / AUC(0-t): male, FVB, mouse; for Kp at 2 h: liver, oral, read-out: Liver-to-plasma ratio; for Cmax / Tmax / AUC(0-t): plasma, po; for AUC(0-t): read-out: AUC0-2 h; for enhancement of AUC0-2h by ritonavir: ritonavir 25 mg/kg compared to vehicle group; for Kp at 2 h / CLiver / Cbrain / Pbrain, brain accumulation per h / SIC (% of dose), small intestinal content: 2 h
Protocol: All animals were fasted 2 to 3 hours prior to the start of the experiment to minimize variation in absorption after oral administration. […] Subsequently, cardiac puncture was performed with a heparinized needle and syringe collecting a final blood sample. […] All samples were stored at −30° C. until analysis.
Differences were considered statistically significant when P<0.05. All data are presented as geometric mean±SD.

[2] = input of human simulation, cited from earlier work
[3] = 10 mg/kg, Oatp1a/1b/2b1−/− mice, vehicle, cabazitaxel 10 mg/kg oral
[4] = 10 mg/kg, Oatp1a/1b−/− mice, vehicle, cabazitaxel 10 mg/kg oral
[5] = 10 mg/kg, wild-type mice, vehicle, cabazitaxel 10 mg/kg oral
[6] = wild-type mice, ritonavir 25 mg/kg oral, cabazitaxel 10 mg/kg oral
[7] = 10 mg/kg, OATP1B1-transgenic mice, ritonavir 25 mg/kg oral, cabazitaxel 10 mg/kg oral
[8] = 10 mg/kg, OATP1B1-transgenic mice, vehicle pretreatment, oral 10 mg/kg cabazitaxel
[9] = 10 mg/kg, OATP1B1-transgenic mice, vehicle, cabazitaxel 10 mg/kg oral
[10] = 10 mg/kg, OATP1B3-transgenic mice, ritonavir 25 mg/kg oral, cabazitaxel 10 mg/kg oral
[11] = 10 mg/kg, OATP1B3-transgenic mice, vehicle pretreatment, oral 10 mg/kg cabazitaxel
[12] = 10 mg/kg, OATP1B3-transgenic mice, vehicle, cabazitaxel 10 mg/kg oral
[13] = 10 mg/kg, Oatp1a/1b/2b1−/− mice, ritonavir 25 mg/kg oral, cabazitaxel 10 mg/kg oral
[14] = 10 mg/kg, Oatp1a/1b/2b1−/− mice, vehicle pretreatment, oral 10 mg/kg cabazitaxel
[15] = 10 mg/kg, Oatp1a/1b−/− mice, ritonavir 25 mg/kg oral, cabazitaxel 10 mg/kg oral
[16] = 10 mg/kg, Oatp1a/1b−/− mice, vehicle pretreatment, oral 10 mg/kg cabazitaxel
[17] = 10 mg/kg, wild-type mice, ritonavir 25 mg/kg oral, cabazitaxel 10 mg/kg oral
[18] = 10 mg/kg, wild-type mice, vehicle pretreatment, oral 10 mg/kg cabazitaxel
[19] = wild-type mice, vehicle, cabazitaxel 10 mg/kg oral

Kp at 2 h [1, 3]: 3.84
Kp at 2 h [1, 4]: 3.95
Kp at 2 h [1, 5]: 3.93
Kp at 2 h ([1]; OATP1B1-transgenic mice, ritonavir 25 mg/kg oral, cabazitaxel 10 mg/kg oral): 3.84
Kp at 2 h ([1]; OATP1B3-transgenic mice, ritonavir 25 mg/kg oral, cabazitaxel 10 mg/kg oral): 4.15
Kp at 2 h ([1]; Oatp1a/1b/2b1−/− mice, ritonavir 25 mg/kg oral, cabazitaxel 10 mg/kg oral): 3.95
Kp at 2 h ([1]; Oatp1a/1b−/− mice, ritonavir 25 mg/kg oral, cabazitaxel 10 mg/kg oral): 3.62
Kp at 2 h [1, 6]: 3.32
Cmax [1, 7]: 4670 nM
Tmax [1, 7]: 65 min
Cmax [1, 8]: 2730 ± 855 nM
Tmax [1, 8]: 27.5 min
AUC(0-t) ([1]; 10 mg/kg, OATP1B1-transgenic mice, vehicle pretreatment, oral 10 mg/kg cabazitaxel, 0-2 h): 3.7 ± 1.23 µM·h
Cmax [1, 9]: 2730 nM
Tmax [1, 9]: 27.5 min
Cmax [1, 10]: 3860 nM
Tmax [1, 10]: 60 min
Cmax [1, 11]: 2690 ± 761 nM
Tmax [1, 11]: 27.5 min
AUC(0-t) ([1]; 10 mg/kg, OATP1B3-transgenic mice, vehicle pretreatment, oral 10 mg/kg cabazitaxel, 0-2 h): 3.51 ± 1.19 µM·h
Cmax [1, 12]: 2690 nM
Tmax [1, 12]: 27.5 min
Cmax [1, 13]: 4270 nM
Tmax [1, 13]: 70 min
Cmax [1, 14]: 2740 ± 1100 nM
Tmax [1, 14]: 26.7 min
AUC(0-t) ([1]; 10 mg/kg, Oatp1a/1b/2b1−/− mice, vehicle pretreatment, oral 10 mg/kg cabazitaxel, 0-2 h): 2.88 ± 0.616 µM·h
Cmax [1, 3]: 2740 nM
Tmax [1, 3]: 26.7 min
Cmax [1, 15]: 4700 nM
Tmax [1, 15]: 80 min
Cmax [1, 16]: 2120 ± 398 nM
Tmax [1, 16]: 24.2 min
AUC(0-t) ([1]; 10 mg/kg, Oatp1a/1b−/− mice, vehicle pretreatment, oral 10 mg/kg cabazitaxel, 0-2 h): 2.62 ± 0.417 µM·h
Cmax [1, 4]: 2120 nM
Tmax [1, 4]: 24.2 min
Cmax [1, 17]: 4530 nM
Tmax [1, 17]: 120 min
Cmax [1, 18]: 2820 ± 694 nM
Tmax [1, 18]: 25.8 min
AUC(0-t) ([1]; 10 mg/kg, wild-type mice, vehicle pretreatment, oral 10 mg/kg cabazitaxel, 0-2 h): 3.28 ± 1.32 µM·h
Cmax [1, 5]: 2820 nM
Tmax [1, 5]: 25.8 min
AUC(0-t) ([1]; wild-type, 10 mg/kg, wild-type mice, ritonavir 25 mg/kg oral, cabazitaxel 10 mg/kg oral): 7.62 µM·h
AUC(0-t) ([1]; wild-type, 10 mg/kg, wild-type mice, vehicle, cabazitaxel 10 mg/kg oral): 3.28 µM·h
enhancement of AUC0-2h by ritonavir ([1]; transgenic OATP1B1 mice): 2.1 fold
enhancement of AUC0-2h by ritonavir ([1]; transgenic OATP1B3 mice): 1.9 fold
CLiver [1, 6]: 21554 pmol/g
Cbrain [1, 6]: 235 pmol/g
Pbrain, brain accumulation per h [1, 6]: 0.026 h⁻¹
SIC (% of dose), small intestinal content [1, 6]: 1.34 % of dose
CLiver [1, 19]: 2703 pmol/g
Cbrain [1, 19]: 50.0 pmol/g
Pbrain, brain accumulation per h [1, 19]: 0.013 h⁻¹
SIC (% of dose), small intestinal content [1, 19]: 1.14 % of dose
Structure (SMILES): CO[C@H]1C(=O)[C@]2(C)[C@@H](OC)C[C@H]3OC[C@@]3(OC(C)=O)[C@H]2[C@H](OC(=O)c2ccccc2)[C@]2(O)C[C@H](OC(=O)[C@H](O)[C@@H](NC(=O)OC(C)(C)C)c3ccccc3)C(C)=C1C2(C)C [cabazitaxel]
CLint, Intrinsic clearance ([2]; calculated from CL 48.5 and QH 80, sources (17, 18)): 123.17 L/h
IIV CL [2]: 38.8 CV%
Lag-time on Ka ([2]; observed for indinavir PK when co-administered with ritonavir, source (27)): 0.483 h
Ka, First order absorption rate constant ([2]; reported for docetaxel, source (26)): 0.7 h⁻¹
IIV K12 ([2]; source (17)): 84.0 CV%
IIV K13 ([2]; source (17)): 64.2 CV%
IIV K31 ([2]; source (17)): 28.2 CV%
IIV VI ([2]; source (17)): 93.4 CV%
IOV CL ([2]; source (17)): 19.4 CV%
IOV V1 ([2]; source (17)): 45.3 CV%
K12 ([2]; source (17)): 2.48 h⁻¹
K13 ([2]; source (17)): 4.84 h⁻¹
K21 ([2]; source (17)): 0.604 h⁻¹
K31 ([2]; source (17)): 0.0266 h⁻¹
V1 ([2]; source (17)): 26 L
